Source: patent publication US5925369A, “Bis alkanoyl esters of carnitine having bactericidal, fungicidal and antiprotozoal activity” (priority 1996, dated 1999)
Read-outs that look alike come from different tables or passages of the source.

Columns and labels:
Assay type in all cases: cell-based
Gram negative bacteria = test: MIC on Gram negative bacteria (all strains); settings: 5 strains
Protocol: Bacterial suspensions are prepared from an overnight culture in Mueller-Hinton broth and are adjusted, in the same medium, to a final concentration of 5.0×10^4 cells/ml in each well of a 96-well microtiter plate. Substance dilutions (0.3 log) in Mueller-Hinton broth are added to the suspensions in order to have a range of final concentrations from 0.19 to 100 mcg/ml.
Microtiters are then incubated at 37° C. for 18 hours. (See L. D. THRUPP, Susceptibility testing of antibiotics in liquid media, in: Antibiotics in laboratory medicine. V. LORIAN Ed., II edition, 4, 93-150, Williams & Wilkins, Baltimora, Md. 21202 U.S.A.).

anaerobic bacteria = test: MIC on anaerobic bacteria (all strains); settings: for MIC: 3 strains
Protocol: Bacteria from cultures in […].) medium on Petri dishes, grown overnight at 35° C. in an anaerobic jar, were resuspended in Brucella broth. The suspensions were adjusted to 1.0×10^8 cells/ml and distributed (0.2 ml/well) in microtiter plates (96-well U-bottomed plate). At the same time, 0.3 log dilutions of the substances are mixed with W. C. agar medium in four-sectioned Petri dishes, which are then seeded with the bacterial suspension by means of a multipoint inoculator (1.0×10^5 cells/spot). The plates are then incubated at 35° C. for 48 hours in an anaerobic jar) (See J. E. ROSENBLATT, Antimicrobial susceptibility testing of anaerobes, in Antibiotics in laboratory medicine. V. LORIAN Ed., II edition, 6, 159-180, Williams & Wilkins, Baltimora, Md 21202 U.S.A.).

C. tropicalis = test: MIC on yeast-like strains; settings: Candida tropicalis; C. tropicalis ISS 1, lab collection; read-out: Minimal Inhibitory Concentration
Protocol: (§1) Overnight yeast cultures in Sabouraud broth are appropriately washed and diluted in Yeast Nitrogen Base supplemented with asparagine and glucose (Y.N.B.s.) to yield approximately 5.0×10^4 CFU/ml in microtiter wells. Substance dilutions (0.3 log) in Y.N.B.s. are added to these suspensions to a final concentration range from 0.19 to 100 mcg/ml. Microtiter plates are then incubated at 35° C. for 24-48 hours (See PFALLER M., RINALDI M. G., […] J. M., BARTLETT M. S., BODY B. A., ESPINEL-INGROFF A., FROMTLING R. A., HALL G. S., HUGHES G. E., ODDS F. C., SUGAR A. M., Collaborative investigator of variables in susceptibility testing of yeasts, Ant. Agent and Chemoth., 34, 9:1648-1656, 1990. COOK R., McINTYRE K. A., […] J. M., Effects of incubation temperature, inoculum size, and medium on agreement of macro and microdilution broth susceptibility test, results for yeasts, Ant. Agent and Chemoth., 34, 8:1542-1545, 1990. […] E., PAETZNICK V., BODEY G. P., Fluconazole susceptibility testing of "Candida albicans" microtiter method that is indipendent of inoculum size, temperature, and time of reaching, Ant. Agent and Chemoth., 35, 8:1641-1646, 1991).

C. krusei = test: MIC on yeast-like strains; settings: Pichia kudriavzevii; C. krusei ISS 1, lab collection; read-out: Minimal Inhibitory Concentration
Protocol: as §1

Candida albicans = test: MIC on yeast-like strains; settings: read-out: Minimal Inhibitory Concentration
Protocol: as §1

S. cerevisiae = test: MIC on yeast-like strains; settings: Saccharomyces cerevisiae, ATCC7752; S. cerevisiae ATCC 7752, lab collection; read-out: Minimal Inhibitory Concentration
Protocol: as §1

Tr. mentagrophytes = test: MIC on dermatophytes; settings: Trichophyton mentagrophytes, read-out: Minimal Inhibitory Concentration
Protocol: (§2) Mycelium fragments, micro and macroaleuriospores are harvested from 7-day fungal cultures grown at 30 ° C. in Potato Dextrose agar by washing them with Sabouraud broth and 0.5% Tween 80. After a coarse filtration and washing, the fungal suspension is resuspended in Yeast Nitrogen Base supplemented with asparagine and glucose (YNBs) to yield a final concentration of 1.0×10^5 infective units/ml in a microtiter plate. The substances (0.3 log dilutions in Y.N.B.s.) are added to the fungal suspensions in order to generate a range of final concentrations from 0.19 to 100 mcg/ml. The microtiter plates are then incubated at 30° C. for 96-120 hours.

Microsporum canis = test: MIC on dermatophytes; settings: read-out: Minimal Inhibitory Concentration
Protocol: as §2

Tr. quinckeanum = test: MIC on dermatophytes; settings: Tr. quinckeanum NCPF 309, lab collection; read-out: Minimal Inhibitory Concentration
Protocol: as §2

Epidermoph. floccosum = test: MIC on dermatophytes; settings: read-out: Minimal Inhibitory Concentration
Protocol: as §2

Tr. rubrum = test: MIC on dermatophytes; settings: Trichophyton rubrum, read-out: Minimal Inhibitory Concentration
Protocol: as §2

yeast-like strains = test: MIC on yeast-like strains (all lab collection strains); settings: 5 strains
Protocol: as §1

[1] = C. albicans 562, lab collection
[2] = C. albicans ISS 1, lab collection
[3] = Candida albicans 1786/94, clinical isolate
[4] = Candida albicans IDI D 0101, clinical isolate (eczema, internatal; prior Versus)
[5] = Candida albicans IDI D 0297, clinical isolate (vulvar vaginitis; prior Pevaryl)
[6] = Candida albicans IDI D 1046, clinical isolate (glossitis; prior Daktarin)
[7] = Candida albicans IDI D 1056, clinical isolate
[8] = Candida albicans IDI D 1088, clinical isolate
[9] = Candida albicans IDI D 3575, clinical isolate
[10] = Candida albicans SG 2 III, clinical isolate (vaginitis)
[11] = Candida albicans SG 7 I, clinical isolate (Tinea unguis, hands)
[12] = Candida albicans SG 14 III, clinical isolate (vaginitis)
[13] = Tr. mentagrophytes IDI D 1027, clinical isolate (impetiginous eczema, chin)
[14] = Tr. mentagrophytes IDI D 1049, clinical isolate
[15] = Tr. mentagrophytes IDI D 1101, clinical isolate (epidermatomycosis, face)
[16] = Tr. mentagrophytes SG 3 I, clinical isolate (Tinea pedis)
[17] = Tr. mentagrophytes SG 4 II, clinical isolate (Tinea cruris)
[18] = Tr. mentagrophytes SG 5 III, clinical isolate (Tinea pedis)
[19] = Tr. mentagrophytes SG 8 II, clinical isolate (Tinea cruris)
[20] = Microsporum canis IDI D 0238, clinical isolate (tricophytosis, right arm; prior Nerisona)
[21] = Microsporum canis IDI D 1011, clinical isolate (eczema, neck; prior Gentalyn and cortisone)
[22] = Microsporum canis IDI D 1123, clinical isolate (epidermophytosis, back; prior Gentalyn)
[23] = Microsporum canis IMM 3868, lab collection
[24] = Epidermoph. floccosum IDI D 0011, clinical isolate (epidermophytosis, foot interdigital)
[25] = Epidermoph. floccosum SG 3 III, clinical isolate
[26] = Epidermoph. floccosum SG 6 II, clinical isolate (Tinea pedis)
[27] = Tr. rubrum IDI D 0222, clinical isolate (onychomycosis, left and right big toes)
[28] = Tr. rubrum IDI D 0252, clinical isolate (impetigo, left arm; prior Rifocin)
[29] = Tr. rubrum IDI D 0261, clinical isolate (dyshidrotic eczema, right foot)
[30] = Tr. rubrum IDI D 1017, clinical isolate (onychomycosis, right big toe; prior Azolmen)
[31] = Tr. rubrum IDI D 1150, clinical isolate (epidermophytosis; prior Gentalyn)
[32] = Tr. rubrum IDI D 1155, clinical isolate
[33] = Tr. rubrum SG 13 III, clinical isolate (Tinea pedis)

## CCCCCCCCCCCOC(=O)C[C@H](C[N+](C)(C)C)OC(=O)CC(C)C [ST 1103, isovaleryl L-carnitine undecyl ester methanesulfonate, reference compound]
Gram negative bacteria; clinical isolates
  MIC: 35 µg/mL
Gram negative bacteria; lab collection
  MIC: 27.5 µg/mL
Anaerobic bacteria
  MIC: 11.4 µg/mL
C. tropicalis
  MIC: 3.12 µg/mL
C. krusei
  MIC: 3.12 µg/mL
Candida albicans; [1]
  MIC: 3.12 µg/mL
Candida albicans; [2]
  MIC: 1.56 µg/mL
Candida albicans; [3]
  MIC: 6.25 µg/mL
Candida albicans; [4]
  MIC: 6.25 µg/mL
Candida albicans; [5]
  MIC: 3.12 µg/mL
Candida albicans; [6]
  MIC: 3.12 µg/mL
Candida albicans; [7]
  MIC: 3.12 µg/mL
Candida albicans; [8]
  MIC: 3.12 µg/mL
Candida albicans; [9]
  MIC: 6.25 µg/mL
Candida albicans; [10]
  MIC: 6.25 µg/mL
Candida albicans; [11]
  MIC: 3.12 µg/mL
Candida albicans; [12]
  MIC: 6.25 µg/mL
S. cerevisiae
  MIC: 3.12 µg/mL
Tr. mentagrophytes; [13]
  MIC: 12.5 µg/mL
Tr. mentagrophytes; [14]
  MIC: 12.5 µg/mL
Tr. mentagrophytes; [15]
  MIC: 12.5 µg/mL
Tr. mentagrophytes; [16]
  MIC: 12.5 µg/mL
Tr. mentagrophytes; [17]
  MIC: 12.5 µg/mL
Tr. mentagrophytes; [18]
  MIC: 12.5 µg/mL
Tr. mentagrophytes; [19]
  MIC: 12.5 µg/mL
Microsporum canis; [20]
  MIC: 25 µg/mL
Microsporum canis; [21]
  MIC: 12.5 µg/mL
Microsporum canis; [22]
  MIC: 12.5 µg/mL
Microsporum canis; [23]
  MIC: 12.5 µg/mL
Tr. quinckeanum
  MIC: 6.25 µg/mL
Epidermoph. floccosum; [24]
  MIC: 12.5 µg/mL
Epidermoph. floccosum; [25]
  MIC: 25 µg/mL
Epidermoph. floccosum; [26]
  MIC: 12.5 µg/mL
Tr. rubrum; [27]
  MIC: 12.5 µg/mL
Tr. rubrum; [28]
  MIC: 25 µg/mL
Tr. rubrum; [29]
  MIC: 12.5 µg/mL
Tr. rubrum; [30]
  MIC: 12.5 µg/mL
Tr. rubrum; [31]
  MIC: 12.5 µg/mL
Tr. rubrum; [32]
  MIC: 3.12 µg/mL
Tr. rubrum; [33]
  MIC: 12.5 µg/mL
yeast-like strains
  MIC: 2.8 µg/mL

## CCCCCCCCCCC(=O)O[C@H](CC(=O)OCc1ccc(COC(=O)C[C@H](C[N+](C)(C)C)OC(=O)CCCCCCCCCC)cc1)C[N+](C)(C)C [ST 1226, bis(undecanoyl L-carnitine chloride)p-xylilene diester]
Gram negative bacteria; clinical isolates
  MIC: 35 µg/mL
Gram negative bacteria; lab collection
  MIC: 26.2 µg/mL
Anaerobic bacteria
  mean MIC value compared with ST 1103: smaller than ST 1103
  MIC: 8.33 µg/mL
C. tropicalis
  MIC: 1.56 µg/mL
C. krusei
  MIC: 3.12 µg/mL
Candida albicans; [1]
  MIC: 3.12 µg/mL
Candida albicans; [2]
  MIC: 3.12 µg/mL
Candida albicans; [3]
  MIC: 3.12 µg/mL
Candida albicans; [4]
  MIC: 1.56 µg/mL
Candida albicans; [5]
  MIC: 3.12 µg/mL
Candida albicans; [6]
  MIC: 3.12 µg/mL
Candida albicans; [7]
  MIC: 1.56 µg/mL
Candida albicans; [8]
  MIC: 3.12 µg/mL
Candida albicans; [9]
  MIC: 3.12 µg/mL
Candida albicans; [10]
  MIC: 1.56 µg/mL
Candida albicans; [11]
  MIC: 3.12 µg/mL
Candida albicans; [12]
  MIC: 1.56 µg/mL
S. cerevisiae
  MIC: 1.56 µg/mL
Tr. mentagrophytes; [13]
  MIC: 3.12 µg/mL
Tr. mentagrophytes; [14]
  MIC: 1.56 µg/mL
Tr. mentagrophytes; [15]
  MIC: 1.56 µg/mL
Tr. mentagrophytes; [16]
  MIC: 1.56 µg/mL
Tr. mentagrophytes; [17]
  MIC: 1.56 µg/mL
Tr. mentagrophytes; [18]
  MIC: 3.12 µg/mL
Tr. mentagrophytes; [19]
  MIC: 1.56 µg/mL
Microsporum canis; [20]
  MIC: 12.5 µg/mL
Microsporum canis; [21]
  MIC: 3.12 µg/mL
Microsporum canis; [22]
  MIC: 1.56 µg/mL
Microsporum canis; [23]
  MIC: 1.56 µg/mL
Tr. quinckeanum
  MIC: 1.56 µg/mL
Epidermoph. floccosum; [24]
  MIC: 12.5 µg/mL
Epidermoph. floccosum; [25]
  MIC: 6.25 µg/mL
Epidermoph. floccosum; [26]
  MIC: 6.25 µg/mL
Tr. rubrum; [27]
  MIC: 1.56 µg/mL
Tr. rubrum; [28]
  MIC: 1.56 µg/mL
Tr. rubrum; [29]
  MIC: 1.56 µg/mL
Tr. rubrum; [30]
  MIC: 1.56 µg/mL
Tr. rubrum; [31]
  MIC: 1.56 µg/mL
Tr. rubrum; [32]
  MIC: 1.56 µg/mL
Tr. rubrum; [33]
  MIC: 1.56 µg/mL
yeast-like strains
  MIC: 2.49 µg/mL
